Experimental data taken from paper PMC10439028, “SGLT5 is the renal transporter for 1,5-anhydroglucitol, a major player in two rare forms of neutropenia” (Cellular and Molecular Life Sciences: CMLS, 2023).

How the values were obtained:
[1] = biological target: T1, mouse SGLT5 (Mus musculus, UniProt Q5SWY8); test: Radioactive uptake assay (saturation kinetics) in HEK293T cells expressing mouse SGLT5; format: cell-based
T1 construct: expressed in transfected cells; host or cells: HEK293T
T1 sequence (Q5SWY8 1-596): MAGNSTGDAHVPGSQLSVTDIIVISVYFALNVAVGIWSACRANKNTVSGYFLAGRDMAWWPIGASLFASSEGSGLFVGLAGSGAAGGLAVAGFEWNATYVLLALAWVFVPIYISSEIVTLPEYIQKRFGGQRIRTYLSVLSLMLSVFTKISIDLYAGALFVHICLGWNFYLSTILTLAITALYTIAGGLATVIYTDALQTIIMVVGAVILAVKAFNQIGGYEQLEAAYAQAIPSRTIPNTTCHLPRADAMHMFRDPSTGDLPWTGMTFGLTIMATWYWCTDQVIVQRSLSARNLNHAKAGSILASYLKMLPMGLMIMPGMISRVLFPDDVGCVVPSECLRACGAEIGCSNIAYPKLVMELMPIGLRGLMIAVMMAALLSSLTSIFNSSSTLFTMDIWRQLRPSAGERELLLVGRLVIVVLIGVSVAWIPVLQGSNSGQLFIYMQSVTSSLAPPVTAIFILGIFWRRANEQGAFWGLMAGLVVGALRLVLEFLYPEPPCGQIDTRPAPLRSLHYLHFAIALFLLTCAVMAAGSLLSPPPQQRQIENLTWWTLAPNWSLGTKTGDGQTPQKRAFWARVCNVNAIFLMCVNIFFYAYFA
Experimental: For a typical transporter experiment we proceeded as follows. […] To minimize cell loss during the various washing steps in the radioactive uptake experiments, the wells where the cells were seeded were previously coated with poly- D-lysine, which improved their adhesion to the plastic surface of the wells. For this, each well of the 24-well plates was treated with 200 µl of a 0.01% poly-L-lysine solution for 10 min, washed 3 times with 1 ml of sterilized water and left to dry for 2 h. Only then could the 24-well plates be seeded with the appropriate cell lines and cultured overnight at 37 °C in 5% CO2.
On day two, the radioactive uptake assay could be performed. […]
Once the uptake medium was added to the cells, the plates were incubated at 37 °C in 5% CO2 during the required time. […] In each experiment, the transport activities were calculated after subtracting a “blank” value, corresponding to the radioactivity in the appropriate control cells (HEK293T cells that were stably or transiently transfected with one of the parent plasmids pEF6/MycHisA, pEF6HisB, pUB82 or pUB83 with no inserted cDNA) that were analyzed in parallel. […]
Supplementary Fig. 4: Transport activities for 1,5-anhydroglucitol and mannose of recombinant mouse SGLT4 and SGLT5 isoforms measured in HEK293T cells. […]

[2] = biological target: T2, mouse SGLT4 (Mus musculus, UniProt Q8VDT1); test: Inhibition of 50 µM mannose transport in HEK293T cells expressing mouse SGLT4; format: cell-based; details: 10 mM 1,5-AG
T2 construct: expressed in transfected cells; host or cells: HEK293T
T2 sequence (Q8VDT1 1-685): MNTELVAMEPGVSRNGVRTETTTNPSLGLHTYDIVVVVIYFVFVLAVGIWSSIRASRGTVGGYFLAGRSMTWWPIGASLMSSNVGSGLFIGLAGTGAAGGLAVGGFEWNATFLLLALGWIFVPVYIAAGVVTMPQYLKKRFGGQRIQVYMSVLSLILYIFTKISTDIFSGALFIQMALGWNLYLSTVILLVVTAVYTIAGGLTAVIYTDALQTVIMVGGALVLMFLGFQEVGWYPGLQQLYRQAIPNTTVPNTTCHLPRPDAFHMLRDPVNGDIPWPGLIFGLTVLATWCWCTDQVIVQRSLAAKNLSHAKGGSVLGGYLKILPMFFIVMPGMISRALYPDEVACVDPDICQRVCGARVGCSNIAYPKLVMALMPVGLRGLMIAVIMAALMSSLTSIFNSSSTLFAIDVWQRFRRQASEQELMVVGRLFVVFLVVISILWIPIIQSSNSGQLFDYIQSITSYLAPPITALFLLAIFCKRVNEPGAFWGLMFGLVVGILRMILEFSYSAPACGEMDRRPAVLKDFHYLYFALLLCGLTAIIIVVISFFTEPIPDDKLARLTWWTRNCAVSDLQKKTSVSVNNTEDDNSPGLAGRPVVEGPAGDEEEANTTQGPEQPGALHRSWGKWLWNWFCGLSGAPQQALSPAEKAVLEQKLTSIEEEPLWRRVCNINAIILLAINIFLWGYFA
Experimental: Supplementary Fig. 4: Transport activities for 1,5-anhydroglucitol and mannose of recombinant mouse SGLT4 and SGLT5 isoforms measured in HEK293T cells.
Transport was measured in 24 well plates with 0.6x10^6 cells during 30 mins at 37°C in 5% CO2 in the presence of the indicated concentrations of 2-[1H+3H]-1,5-AG for both mSGLT4 (A) and mSGLT5 (B) and U-[12C+14C]-mannose (C) for mSGLT4. The saturation curves for the transport activities and the derived kinetic constants (Km and Vmax) are shown and indicate that mSGLT4 appears to be able to transport 1,5-anhydroglucitol but with a very low affinity (Km > 5 mM – panel A) compared to mannose (Km = 0.2 mM – panel C), while mSGLT5 transports efficiently 1,5-anhydroglucitol (Km = 0.5 mM – panel B). (D) 10 mM 1,5- […]
U-[12C+14C]-mannose) for both the human (hSGLT4) and the mouse (mSGLT4) isoforms of […]
(also on this page, place not known: Transport of (pmol/min/100 cells) Transport of (pmol/min/100 cells) 000 Transport of 1,5-AG (pmol/min/100 000 cells) 000 hSGLT4 mSGLT4 Mannose transport activity (% of the value at [12C+14C]-mannose) 50 µM mannose 1,5-AG)

In the case of `OC[C@H]1OC[C@H](O)[C@@H](O)[C@@H]1O` [1,5-AG, 1,5-anhydroglucitol], the “mSGLT5 Vmax” value ([1]; 30 min, Supplementary Fig. 4) is reported as 16 pmol/min/100 000 cells, the “higher affinity of mouse SGLT5 than mouse SGLT4 for 1,5-AG” value ([1]; mouse SGLT5 versus mouse SGLT4) is reported as “over tenfold” and the “inhibition of mouse SGLT4 transport activity” value [2] is reported as “barely inhibited”.
